Values quoted from earlier work as cited in patent US12048763B2, “Compositions and methods for treating sialorrhea” (priority 2021, dated 2024).

Settings: by 6 months

In the case of `C[N+]1(C)CCC(OC(=O)C(O)(c2ccccc2)C2CCCC2)C1` (stereo not shown) [glycopyrrolate], the “participants no longer taking the drug due to adverse effects” value is listed as 45%.
